Test results taken from PMC11912270, “Synthesis and SAR Studies of Acyl-Thiourea Platinum(II) Complexes Yield Analogs with Dual-Stage Antiplasmodium Activity” (ACS Medicinal Chemistry Letters, 2025).

Assay: Single-point microsomal metabolic stability, mouse
Assay type: in vitro ADME
Conditions: mouse liver microsomes, 1 µM
Procedure: 1.8. Microsomal metabolic stability studies […]
rat IGS, Xenotech), and mouse (male mouse CD1, Xenotech) liver microsomes (0.4 mg/ml) for 30 min at 37 °C. Reactions were quenched by adding ice-cold acetonitrile containing […]
disappearance of the parent compound. Half-life, clearance, and hepatic excretion ratios were determined using standard equations.6,7 Propranolol. […]

Nc1cc[n+]2c(c1)-c1cc(N)cc[n+]1[Pt-2]21[O+]=C(c2ccccc2)N=C(N(CCO)CCO)[S]1.[Cl-] [C6]
Microsomal metabolic stability (% remaining after 30 min) Mouse: 94 % remaining
